Results on 1 molecule are retold here after patent publication US20220184008A1, “MODULATORS OF INTRACELLULAR CHLORIDE CONCENTRATION” (FONDAZIONE ISTITUTO ITALIANO DI TECNOLOGIA, priority 2019, published 2022).

As usually defined, the solubility is the concentration that dissolves in the medium under given conditions. A low value points to a poorly soluble substance.

The structures appear in SMILES notation. Some results are limits rather than exact numbers.

A short description of series [1]: Solubility in aqueous buffer. As to conditions: PBS, pH 7.4, aqueous buffer. Format: physicochemical. The protocol:
FIG. 3: Assessment of drug-likeness of a selected compound, compound 3.17. a) Chemicophysical properties of bumetanide and compound 3.17 by LC-MS analysis. b) Comparison between urinary volume of WT mice (C57Bl/6N) two hours after treatment with bumetanide (0.2 mg/kg) and compound 3.17 (0.2 mg/kg). c) Assessment of urinary volume of Ts65Dn mouse model of Down syndrome and WT littermates two hours after treatment with compound 3.17 (0.2 mg/kg). Number in parenthesis: number of analyzed animals. Data represents mean±sem, and they are presented as % of the respective vehicle.
The selected NKCC1 inhibitor compound 3.17 has been evaluated for solubility in aqueous buffers, and stability in plasma and phase I metabolism in vitro (FIG. 3a).

In series [2] the test system is Ts65Dn mice. The series can be described thus: Cognitive impairment tests in Ts65Dn mice (object location, object recognition, T-maze, fear conditioning). Format: in vivo. To be noted: i.p. 0.2 mg/kg, one week; four cognitive tests. The text has this:
FIG. 4: In vivo assessment of the efficacy of the selected NKCC1 inhibitor in Ts65Dn mice. (a) Quantification of the discrimination index in mice treated with vehicle (WT, n=14, Ts65Dn, n=10;) or 3.17 (WT, n=14, Ts65Dn, n=11;) ***P<0.001; two-way ANOVA Tukey's post hoc test. (b) Quantification of the discrimination index in mice treated with vehicle (WT, n=14, Ts65Dn, n=10;) or 3.17 (WT, n=14, Ts65Dn, n=11) *P<0.05, **P<0.01 two-way ANOVA Tukey's post hoc test. (c) Quantification of the correct choices in mice treated with vehicle (WT, n=14, Ts65Dn, n=10;) or 3.17 (WT, n=14, Ts65Dn, n=11;) ***P<0.001; two-way ANOVA Tukey's post hoc test. (d) Quantification of the freezing response in mice treated with vehicle (WT, n=14, Ts65Dn, n=10;) or 3.17 (WT, n=14, Ts65Dn, n=11;) *P<0.05, **P<0.01 two-way ANOVA Tukey's post hoc test.
The efficacy of compound 3.17 in rescuing cognitive impairment in four different cognitive tests in Ts65Dn mice (FIG. 4) has been evaluated. Adult Ts65Dn mice and their WT littermates were treated (2 months old) for one week with 3.17 (i.p. 0.2 mg/kg) or its vehicle. For the following three weeks, the animals were tested in four different tasks assessing memory and cognition: a) novel object location task (Deidda, G. et al. Reversing excitatory GABAAR signaling restores synaptic plasticity and memory in a mouse model of Down syndrome. […]

For the molecule `CN(C)S(=O)(=O)c1cc(C(=O)O)ccc1NCCCCCCCC(F)(F)F` [Compound 3.17, 3-(dimethylsulfamoyl)-4-(8,8,8-trifluorooctylamino) benzoic acid], the solubility in series [1] was greater than 250 µM. Also, the “cognitive performance of Ts65Dn mice” value in series [2] is recorded as “ameliorated”.
